In patent US20150099653A1, “PROCESS OF DIAGNOSTIC, PROGNOSTIC AND THERAPEUTIC MONITORING OF SOLID TUMORS” (CENTRE NATIONAL DE LA RECHERCHE SCIENTIFIQUE, priority 2011, published 2015):

Key:
[1] = tested on: HBCx-41 in vitro cultured dissociated cells; assay: In vitro treatment of ex vivo cultured dissociated cells with anti-cancer drugs, WST-1 viability; format: cell-based, human; conditions: HBCx-41 dissociated cells, incremental concentrations, 72 h incubation
Protocol: In vitro treatments with anti-cancer drugs were performed in flat bottomed 96 well microplates. Equal number of viable cells (40 000) were distributed in each well and allowed for attachment for 3 days. […] After 72 h incubation in presence or absence of compounds, WST-1 (based on the cleavage of the tetrazolium salt by respiratory mitochondrial enzyme, Roche diagnostic) was added and incubated following manufacturer instructions. Optic density was read on a microplate reader at 450 nm. A sigmoid analytical curve gave the 50% inhibitory concentration (IC50).

[2] = tested on: breast tumor xenograft (HBCx-4A, HBCx-16, HBCx-8, HBCx-17); assay: Cisplatin treatment in four models of breast tumor xenograft, RBD expression; format: in vivo, mouse
Description: The four models are the followings: HBCx-4A (non-responsive), HBCx-16 (responsive), HBCx-8 (responsive), HBCx-17 (responsive). […] Left histograms (FeLVC.RBD): from left to right HBCx-4A, HBCx-16, HBCx-8, HBCx-17. Right histograms (BLV.RBD): from left to right HBCx-4A, HBCx-16, HBCx-8, HBCx-17.

[3] = tested on: line coming from HBCx-4A; assay: Cisplatin dose response kinetic, cell viability (OD 450 nm); format: cell-based, human; conditions: HBCx-4A line on plastic
Protocol: FIG. 16A: cisplatine dose response kinetic
from top to bottom: white circle: no treatment (no tt), white square: 35 μM, white triangle (top point): 45 μM, white triangle (bottom point): 55 μM, white diamond: 65 μM, black circle: […]

[4] = tested on: line coming from HBCx-4A; assay: RBD expression after in vitro cisplatin (MFI, flow cytometry); format: cell-based, human
Protocol: FIG. 16B: PERV-A.RBD • x-axis: time in hours • y-axis: MFI (mean of fluorescent intensity)
(§1) For metabolite transporters labelling, 200 000 to 500 000 viable cells were incubated at 37° C. in RBD premix consisting in 3 μl of a RBD mouse Fc tagged plus 3 μl of a RBD rabbit Fc tagged diluted in 50 μl of CO2 independent medium and washed once before secondary staining with fluorescent conjugated antibodies against mouse (goat anti-mouse AF488, Cell Signalling Technology) and rabbit (goat anti-rabbit AF647, Cell Signalling Technology). Rat anti-mouse Pan H-2 added in a third step allowed for the discrimination between human and mouse cells.

[5] = tested on: line coming from HBCx-4A; assay: RBD expression after in vitro everolimus (MESF, flow cytometry); format: cell-based, human; conditions: 0, 1, 100, 1000 nM; 6, 24, 72 h
Protocol: (§2) FIG. 17A to 17H presents the in vitro effect of everolimus on a line coming from HBCx-4A and put on plastic in function of time.
FIGS. 17B and 17C: 6 hours after everolimus.
FIGS. 17D and 17E: 24 hours after everolimus.
FIGS. 17F to 17H: 72 hours after everolimus. […]
High sensitivity is a challenge in flow cytometry. […] To visualize thin variation of expression level in multiple channel protocol, we need one unique unit, as fluorescence arbitrary units read on the same cytometer from two different fluorophores in their own channel cannot be confronted. Molecule of Equivalent Soluble Fluorochrome (MESF) is given by regression of arbitrary fluorescence measured versus standardisation beads coated with known amounts of same fluorochrome used in cells staining (AF647 and AF488 MESF quantum beads, BangsLab) acting as intra- and interexperiments calibrator. Measured fluorescence depends on lasers power, photomultiplicator tube settings, pH of staining medium. Fluorescence measured is proportional to the number of fluorochromes linked to the antibody used, itself correlated to the number of antibody bound to specific sites. […] For RBDs, quantification of non-specific signal was determined using secondary conjugated antibody alone.

[6] = tested on: breast tumor xenograft (HBCx-3); assay: Everolimus treatment in breast tumor xenograft, RBD expression; format: in vivo, mouse; conditions: HBCx-3, 2.5 mg/kg i.p.
Protocol: FIG. 12 presents the effect of an everolimus treatment (2.5 mg/kg, i.p.—intraperotoneal) in a model of breast tumor xenograft (HBCx-3) known to be responsive to everolimus treatment at short times.
Mice of example 1 have been used.
Four RBDs are studied: • Circle: Xeno.RBD • Triangle: Ampho.RBD • Diamond: FeLVC.RBD • Square: RD114.RBD
The human breast cancer specimens were obtained with informed consent from the patients undergoing surgery. Fresh tumor fragments were grafted into the interscapular fat pad of 8-12 week old female Swiss nude mice, under avertin anaesthesia. Mice were maintained in specific pathogen-free animal housing (Institut Curie, Paris, France) and received estrogen (17 mg/ml) diluted in drinking water. Xenografts appeared at the graft site 2 to 8 months after initial transplantation. They were subsequently transplanted from mouse to mouse and formally established since third in vivo passage (Marangoni, Elisabetta A new model of patient tumor-derived breast cancer xenografts for preclinical assays Clin Cancer Res. 2007 Jul. 1; 13(13):3989-98). All the experiments were performed in accordance with the UKCCCR guidelines about animal ethics in neoplasia research (British Journal of Cancer (2010) 102, 1555-1577). Present experiments were all performed in well-established tumor models and required a minimal tumor size of 600 mm^3 to collect enough cellular material. In all cases, particular attention through careful clinical examination has been paid to ensure that the recipient mice remained in a general good health to avoid as far as possible necrotic tumors. All tumors were aseptically excised from ethically sacrificed mice with autoclaved surgical material. NEDB and culture media w/o FCS are both equivalent for a short period before processing.
as §1

[7] = tested on: breast tumor xenograft (HBCx-3); conditions: HBCx-3, short times; cited from earlier work
[8] = tested on: line coming from HBCx-4A; assay: Everolimus dose response kinetic, WST (OD 450 nm); format: cell-based, human
Protocol: as §2
FIG. 17A: everolimus dose response kinetic
from top to bottom: no treatment (nott), black circle: 0.001 μM, white square: 0.1 μM, black triangle: 10 μM, bottom white square: 50 μM.
At 10 μM, the dose of everolimus is a cytotoxic dose. • x-axis: time in hours • y-axis: WST (OD 450 nm)

[9] = target: T1, Glut1 (human, UniProt P11166 1-492); assay: flow cytometry, RBD-Fc labelling of viable human breast cancer xenograft cells (HBCx-3, -4A, -8, -24, -30), read out in MESF
T1 construct: whole, on cells; also called glucose transporter GLUT-1
T1 sequence: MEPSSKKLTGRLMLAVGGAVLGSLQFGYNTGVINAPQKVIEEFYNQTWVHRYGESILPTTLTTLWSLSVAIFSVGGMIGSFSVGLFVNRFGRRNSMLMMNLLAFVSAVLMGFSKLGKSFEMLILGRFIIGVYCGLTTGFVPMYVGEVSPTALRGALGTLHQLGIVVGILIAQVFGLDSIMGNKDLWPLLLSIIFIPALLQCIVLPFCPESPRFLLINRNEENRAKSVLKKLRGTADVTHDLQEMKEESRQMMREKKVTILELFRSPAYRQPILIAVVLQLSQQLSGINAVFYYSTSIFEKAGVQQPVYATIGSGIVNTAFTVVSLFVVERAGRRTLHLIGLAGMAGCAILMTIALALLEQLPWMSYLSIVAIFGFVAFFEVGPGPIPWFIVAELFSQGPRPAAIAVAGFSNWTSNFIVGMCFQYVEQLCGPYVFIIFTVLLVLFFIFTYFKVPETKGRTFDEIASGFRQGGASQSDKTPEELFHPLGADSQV

[10] = target: T2, PiT1 (human, UniProt Q8WUM9 1-679); assay: as above
T2 construct: whole, on cells
T2 sequence: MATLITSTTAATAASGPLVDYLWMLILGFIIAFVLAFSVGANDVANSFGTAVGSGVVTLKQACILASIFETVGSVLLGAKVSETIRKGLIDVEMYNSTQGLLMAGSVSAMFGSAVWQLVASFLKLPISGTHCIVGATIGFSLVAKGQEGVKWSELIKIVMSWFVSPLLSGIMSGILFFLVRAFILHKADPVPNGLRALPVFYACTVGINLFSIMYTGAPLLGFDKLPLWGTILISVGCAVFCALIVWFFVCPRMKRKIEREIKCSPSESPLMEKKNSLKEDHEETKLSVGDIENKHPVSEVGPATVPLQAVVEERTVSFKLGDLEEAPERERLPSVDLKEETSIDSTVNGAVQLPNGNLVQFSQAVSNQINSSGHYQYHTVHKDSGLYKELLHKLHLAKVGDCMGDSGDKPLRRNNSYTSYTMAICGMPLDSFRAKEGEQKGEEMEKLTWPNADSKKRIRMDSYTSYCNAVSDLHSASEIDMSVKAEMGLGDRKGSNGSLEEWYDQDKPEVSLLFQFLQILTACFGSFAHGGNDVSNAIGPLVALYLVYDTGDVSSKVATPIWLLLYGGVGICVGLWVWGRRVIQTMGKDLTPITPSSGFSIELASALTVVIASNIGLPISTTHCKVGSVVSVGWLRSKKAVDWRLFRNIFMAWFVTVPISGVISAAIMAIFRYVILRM

[11] = 24 and 48 h, both doses (50 and 100 μM)
[12] = everolimus, HBCx-4A line on plastic

N.N.[Cl][Pt][Cl] [cisplatin, Cisplatin]
toxicity (cell viability %) [1]: dose dependent toxicity
response of the model to treatment ([2]; HBCx-4A, 6 mg/kg i.p.): non-responsive
response of the model to treatment ([2]; HBCx-8, 6 mg/kg i.p.): responsive
response of the model to treatment ([2]; HBCx-16, 6 mg/kg i.p.): responsive
response of the model to treatment ([2]; HBCx-17, 6 mg/kg i.p.): responsive
expression of FeLVC.RBD ([2]; non responsive model (HBCx-4A), 72 h post treatment, 6 mg/kg i.p.): increase
expression of BLV.RBD ([2]; responsive and non responsive models, 72 h post treatment, 6 mg/kg i.p.): no difference
expression of FeLVC.RBD ([2]; responsive model HBCx-16, 72 h post treatment, 6 mg/kg i.p.): decrease
cytostatic dose [3]: 55 µM
AmphoMLV.RBD expression at 100 μM compared with 50 μM ([4]; 100 μM vs 50 μM): higher than at 50 μM
RD114.RBD expression at 100 μM compared with 50 μM ([4]; 100 μM vs 50 μM): higher than at 50 μM
expression of AmphoMLV.RBD (MFI) [4, 11]: increased
expression of RD114.RBD (MFI) [4, 11]: increased
expression of PERV-A.RBD (MFI) ([4]; 48 h, both doses (50 and 100 μM)): increased

CC(=O)O[C@@]12CO[C@@H]1C[C@H](O)[C@@]1(C)C(=O)[C@H](O)C3=C(C)[C@@H](OC(=O)[C@H](O)[C@@H](NC(=O)OC(C)(C)C)c4ccccc4)C[C@@](O)([C@@H](OC(=O)c4ccccc4)[C@H]21)C3(C)C [docetaxel, Docetaxel]
toxicity (cell viability %) [1]: dose dependent toxicity

CO[C@H]1C[C@@H]2CC[C@@H](C)[C@@](O)(O2)C(=O)C(=O)N2CCCC[C@H]2C(=O)O[C@H]([C@H](C)C[C@@H]2CC[C@@H](OCCO)[C@H](OC)C2)CC(=O)[C@H](C)/C=C(\C)[C@@H](O)[C@@H](OC)C(=O)[C@H](C)C[C@H](C)/C=C/C=C/C=C/1C [everolimus]
response of RBDs (MESF) [5]: time and dose dependant
variation of Ampho.RBD expression [6]: vary later
variation of FeLVC.RBD expression [6]: vary at the beginning of the treatment
variation of RD114.RBD expression [6]: higher than the one of Ampho
variation of Xeno.RBD expression [6]: vary at the beginning of the treatment
expression of RBDs with the treatment ([6]; Xeno, Ampho, FeLVC, RD114 RBDs): varies significantly
response of the model to treatment [7]: responsive
effect on the line at 0.001 μM ([8]; everolimus 0.001 μM): proliferation of the line
cytostatic dose [8, 12]: 0.1 µM
cytotoxic dose [8, 12]: 10 µM

B1: H2.RBD.mFC immunoadhesin (HTLV-2 SU receptor binding domain fused to mouse IgG Fc) (Fc fusion)
chain: QQSRCTLTVGISSYHSSPCSPTQPVCTWNLDLNSLTTDQRLHPPCPNLITYSGFHKTYSLYLFPHWIKKPNRQGLGYYSPSYNDPCSLQCPYLGCQSWTCPYTGPVSSPSWKFHSDVNFTQEVSQVSLRLHFSKCGSSMTLLVDAPGYDPLWFITSEPTQ
notes: also called HTLV-2.RBD-Mfc; RBD derived from HTLV-2; not shown: mouse IgG Fc fragment
binding result [9]: binds

B2: Ko.RBD.mFC immunoadhesin (KoRV SU receptor binding domain fused to mouse IgG Fc) (Fc fusion)
chain: NQQHNNPHQPMTLTWQVLSQTGSVVWEKKAVEPPWTWWPSLEPDVCALVAGLESWDIPELTASASQQARPPDSNYEHAYNQITWGTLGCSYPRARTRIARSQFYVCPRDGRSLSEARRCGGLESLYCKEWGCETAGTAYWQPRSSWDLITVGQGHPTGTCERTGWCNPLKIEFTEPGKRFRNWLQGRTWGLRFYVTGHPGVQLTIRLVITSPPPVVVG
notes: also called KoRV.RBD-Mfc; KoRV.RBD.MFC; not shown: mouse IgG Fc fragment
binding result [10]: binds
